Test [1] deals with Salmonella enterica subsp. enterica serotype Typhimurium. Put plainly: Checkerboard assay, SM and antibiotic combinations. Type of test: cell-based. The conditions noted are these: for MBC: Salmonella enterica, TYPHIMURIUM, antibiotic alone, M9 medium, read-out: AB MBCalone. The protocol:
The potentiation effect of several antibiotics, commonly used to control Salmonella, was studied in a checkerboard assay. […] The MBC of each antibiotic was determined in M9 medium prior the experiment using a dose-response assay, as described above. For potentiation studies, 100 μl of a S. […] The MBC of each antibiotic was determined as described in the dose-response assay. Bacteria challenged with SMs or antibiotics alone at the same concentrations were used to determine the antibiotic-SM combination effects. […] Further, the bacterial suspension was plated on an agar medium and incubated at 37 °C for 36 hrs. The antibiotic-SM combination effect was calculated based on the determination of the fractional bactericidal concentration (FBC) as previously described[66],[67].

Test [2] concerns S. Typhimurium LT2 wild-type (WT) strain. The test is described as follows: Dose-response assay (MIC and MBC determination) in M9 broth. Type of test: cell-based, Salmonella enterica subsp. enterica serovar Typhimurium. The following applies: 12 hrs at 37 °C, read-out: MBC (minimal bactericidal concentration). The protocol: Typhimurium using high-throughput screening assay in a 96-well plate format. […] Plates were incubated in a Sunrise Tecan kinetic microplate reader for 12 hrs at 37 °C and the optical density (OD) was measured at 600 nm. The percentage of growth inhibition was calculated as: […]. Cultures from wells showing no turbidimetric increase were transferred onto a XLT4 agar plate. Plates were incubated at 37 °C for 36 hrs. […] S. Typhimurium was challenged with a determined concentration of SM as described in the primary screen.

The test system of a further test is Salmonella Enteritidis. Put plainly: Dose-response assay (MBC) on Salmonella serovars. The conditions noted are these: Salmonella enterica; serovar Enteritidis, M9 broth. Type of test: cell-based.
The next test has as its system Salmonella Heidelberg. Put plainly: Dose-response assay (MBC) on Salmonella serovars. It is filed as cell-based. The conditions noted are these: Salmonella enterica; serovar Heidelberg, M9 broth.
The next test concerns Salmonella Javiana. Put plainly: Dose-response assay (MBC) on Salmonella serovars. It is filed as cell-based, Salmonella enterica.
The test system of another test is Salmonella Newport. The test is described as follows: Dose-response assay (MBC) on Salmonella serovars. It is filed as cell-based. The conditions noted are these: Salmonella enterica; serovar Newport, M9 broth.
The test system of another test is Salmonella Saint-Paul. Put plainly: Dose-response assay (MBC) on Salmonella serovars. Type of test: cell-based, Salmonella enterica. The conditions noted are these: serovar Saint-Paul, M9 broth.
The subject of test [3] is nine Salmonella serotypes. The test is described as follows: Activity spectrum and dose-response across Salmonella serotypes. It is filed as cell-based, Salmonella enterica. The protocol: The 128 SMs inhibiting S. Typhimurium growth (20% or higher) were tested for their antimicrobial effect on nine different Salmonella serovars frequently implicated in foodborne gastroenteritis outbreaks. […] Both screens were performed at 200 µM as described in the primary screening. Growth conditions for each strain are described in Supplementary Table S2.
S. Typhimurium was challenged with a determined concentration of SM as described in the primary screen.

In another test the test system is S. Typhimurium. It is filed as cell-based, Salmonella enterica subsp. enterica serovar Typhimurium.
For test [4], the system named is Kan^R S. Typhimurium in G. mellonella larvae. The test is described as follows: Efficacy in Salmonella-infected G. mellonella larvae. Type of test: in vivo, Galleria mellonella. The conditions noted are these: for Survival of infected larvae: three days. Here is the method:
Wax moths were selected as mentioned above. For this study, Kan^R S. Typhimurium was used for challenge. First, the virulence of Kan^R S. Typhimurium was assessed in comparison to WT parent S. Typhimurium strain in G. mellonella. Briefly, larvae (n = 20) were infected in one pro-leg with approximately 8.5 × 10^3 S. Typhimurium suspended in 10 mM MgSO4 (8,5 µl of inoculum) and incubated for three days in the dark at 37 °C in a petri dish. Survival was monitored every 12 hrs for three days. Bacterial quantification was performed once the larvae had died (dark pigmentation or no reaction to a mechanical stimulus) or after 72 hrs of incubation. Larvae were washed once with 70% ethanol, twice with sterile distilled water for 30 sec each, and transferred individually into an Eppendorf® tubes containing 1 ml of 1X PBS and homogenized. The mixture was serially diluted, plated on XLT-4 agar plate supplemented with 50 µg/ml kanamycin, and incubated for 36 hrs at 37 °C. Larvae not treated and larvae treated with the buffer mix were included as controls. The virulence of Kan^R and WT S. Typhimurium strains was assessed by comparing the larval mortality and bacterial counts.
To test the effect of SMs on S. Typhimurium in larvae, SMs and Kan^R S. Typhimurium were injected into two different pro-legs and at different time points as previously described. First, the larvae were treated with SMs, then incubated for 2 hrs at 37 °C in a petri dish, and infected with approximately 8.5 × 10^3 of Kan^R S. Typhimurium per larva. Summary of treatments are described in Supplementary Table S3. Larvae treated with 50 mg/kg chloramphenicol were used as control (lowest concentration of antibiotic allowing 100% larva survival rate; see Supplementary Fig. S3F).
34 Supplemental Table 3. SM treatment groups: wax moth study
Groups Treatment S. Typhimurium*
Negative control 30% DMSO Yes
36 At the given concentration, SMs were soluble at 30% DMSO and higher. Asterisk:
37 larvae were infected with approximately 3.5 X 104 S. Typhimurium bacteria per […]

Where [5] appears, read: antibiotic combined with SM1 at the concentration in the next cell.
The mark [6] stands for this setting: antibiotic combined with SM3 at the concentration in the next cell.
Setting [7] is: antibiotic combined with SM4 at the concentration in the next cell.
[8] abbreviates: antibiotic combined with SM5 at the concentration in the next cell.

Results on 8 compounds are retold here after PMC6127322, “Novel Imidazole and Methoxybenzylamine Growth Inhibitors Affecting Salmonella Cell Envelope Integrity and its Persistence in Chickens” (Scientific Reports, 2018).

Each structure is given as a SMILES string. ≈ marks a conversion by molar mass, not a printed value. Where two headings read alike, the source gives them in different places.

As to `CO/N=C(\C(=O)N[C@@H]1C(=O)N2C(C(=O)O)=C(COC(C)=O)CS[C@H]12)c1csc(N)n1` [Cefotaxime], in test [1] (12 h), the MBC was 3.2 µg/mL. For the same compound, the “AB MBCcombined” value in test [1] (setting [5]), in [1] (setting [6]), in test [1] (setting [7]) and in test [1] (setting [8]) was 3.2 µg/mL throughout. Also, the “Combination effect (FBC class)” value in [1] (antibiotic with SM1) is “c (Indifferent (FBC > 1.0 and ≤2.0; reduction in MBCs inferior to 50% for both antibiotic and SM))”; in test [1] (antibiotic with SM3), “c (Indifferent (FBC > 1.0 and ≤2.0; reduction in MBCs inferior to 50% for both antibiotic and SM))”; in test [1] (antibiotic with SM4), “c (Indifferent (FBC > 1.0 and ≤2.0; reduction in MBCs inferior to 50% for both antibiotic and SM))”; in test [1] (antibiotic with SM5), “c (Indifferent (FBC > 1.0 and ≤2.0; reduction in MBCs inferior to 50% for both antibiotic and SM))”.

For the compound `CC[C@H]1OC(=O)[C@H](C)[C@@H](O[C@H]2C[C@@](C)(OC)[C@@H](O)[C@H](C)O2)[C@H](C)[C@@H](O[C@@H]2O[C@H](C)C[C@H](N(C)C)[C@H]2O)[C@](C)(O)C[C@@H](C)C(=O)[C@H](C)[C@@H](O)[C@]1(C)O` [Erythromycin], the MBC in test [1] (12 h) amounted to 200 µg/mL. Further, the “AB MBCcombined” value in test [1] (setting [5]), in [1] (setting [6]), in test [1] (setting [7]) and in test [1] (setting [8]) was 200 µg/mL in each case. The “Combination effect (FBC class)” value was “c (Indifferent (FBC > 1.0 and ≤2.0; reduction in MBCs inferior to 50% for both antibiotic and SM))” in test [1] (antibiotic with SM1); “c (Indifferent (FBC > 1.0 and ≤2.0; reduction in MBCs inferior to 50% for both antibiotic and SM))” in test [1] (antibiotic with SM3); “c (Indifferent (FBC > 1.0 and ≤2.0; reduction in MBCs inferior to 50% for both antibiotic and SM))” in test [1] (antibiotic with SM4); “c (Indifferent (FBC > 1.0 and ≤2.0; reduction in MBCs inferior to 50% for both antibiotic and SM))” in [1] (antibiotic with SM5).

For `C[C@@H](O)[C@H]1C(=O)N2C(C(=O)O)=C(S[C@@H]3CN[C@H](C(=O)N(C)C)C3)[C@H](C)[C@H]12` [Meropenem], the MBC in test [1] (12 h) and in test [1] was 0.2 µg/mL each time. Moreover, the “AB MBCcombined” value in test [1] (setting [7]) and in test [1] (setting [8]) was 0.2 µg/mL throughout. Also, the “Combination effect (FBC class)” value is “b (Additive effect (FBC > 0.5 and ≤ 1.0; percentage reduction in MBCs between 50% and 75% for both antibiotic and SM))” in test [1] (antibiotic with SM1); “c (Indifferent (FBC > 1.0 and ≤2.0; reduction in MBCs inferior to 50% for both antibiotic and SM))” in test [1] (antibiotic with SM3); “c (Indifferent (FBC > 1.0 and ≤2.0; reduction in MBCs inferior to 50% for both antibiotic and SM))” in [1] (antibiotic with SM4); “c (Indifferent (FBC > 1.0 and ≤2.0; reduction in MBCs inferior to 50% for both antibiotic and SM))” in test [1] (antibiotic with SM5).

As for `CCn1cc(C(=O)O)c(=O)c2ccc(C)nc21` [Nalidixic acid], the MBC in test [1] (12 h) and in test [1] was 16 µg/mL each time. Besides, the “AB MBCcombined” value in [1] (setting [6]), in test [1] (setting [7]) and in [1] (setting [8]) was 16 µg/mL throughout. The “Combination effect (FBC class)” value in test [1] (antibiotic with SM1) was “c (Indifferent (FBC > 1.0 and ≤2.0; reduction in MBCs inferior to 50% for both antibiotic and SM))”; in test [1] (antibiotic with SM3), “c (Indifferent (FBC > 1.0 and ≤2.0; reduction in MBCs inferior to 50% for both antibiotic and SM))”; in [1] (antibiotic with SM4), “c (Indifferent (FBC > 1.0 and ≤2.0; reduction in MBCs inferior to 50% for both antibiotic and SM))”; in test [1] (antibiotic with SM5), “c (Indifferent (FBC > 1.0 and ≤2.0; reduction in MBCs inferior to 50% for both antibiotic and SM))”.

For `CN(CCO)CC(O)Cn1c2ccc(Br)cc2c2cc(Br)ccc21` (stereo not drawn) [SM2], the MBC in test [2] was found to be 100 µM (≈ 45.6 µg/mL); in test [2] (Salmonella enterica), 100 µM (≈ 45.6 µg/mL); against Salmonella Enteritidis it was 200 µM (≈ 91.2 µg/mL); in the test with Salmonella Heidelberg, 200 µM (≈ 91.2 µg/mL); against Salmonella Javiana, 200 µM (≈ 91.2 µg/mL); with Salmonella Newport, 200 µM (≈ 91.2 µg/mL). In addition, the MBC is 200 µM (≈ 91.2 µg/mL) against Salmonella Saint-Paul and 100 to 200 µM (≈ 45.6 to 91.2 µg/mL) in test [3] (Salmonella, read-out: MBCs among the nine serotypes). Also, the “Effect against the nine Salmonella serotypes” value in test [3] (200 µM, M9 broth) is on record as “cidal”. Further, the “Concentration in which resistant bacteria were able to grow” value in the test on S. Typhimurium (M9 broth, 4X MBC) was 400 µM. Moreover, in the test with S. Typhimurium (lethal dose (2X MBC) on solid medium or repeated exposure to sub-lethal dose (0.75X MBC) in liquid medium), the “Resistance development of S. Typhimurium” value is “developed resistance”.

On to `O=[N+]([O-])c1ccc(F)c(N=Cc2cc(Cl)cc(Cl)c2O)c1` [SM7], for which the MBC in test [2] was 50 µM (≈ 16.5 µg/mL).

With `COc1cccc(N=Cc2cc(Cl)cc(Cl)c2O)c1` [SM8], in [2], the MBC amounted to 100 µM (≈ 29.6 µg/mL).

Consider `O=C(N[C@H](CO)[C@H](O)c1ccc([N+](=O)[O-])cc1)C(Cl)Cl` [chloramphenicol], for which the “Survival of infected larvae” value in test [4] (50 mg/kg) is 100%; in test [4] (50, 75, and 100 mg/kg, treated 2 hrs before infection) it was 100%. The “Lowest concentration allowing 100% larva survival rate” value in test [4] (infected larvae) amounted to 50 mg/kg.
